Experimental data published in ChEMBL document CHEMBL3046761, “Synthesis of 27-oxo, 27-hydroxymilbemycins A3 and A4 and novel 27-alkoxymilbemycins A3 and A4 from milbemycins A3 and A4 and their acaricidal activities” (2002).

How the values were obtained:
[1] = tested on: Tetranychus urticae; experiment: Acaricidal activity against Tetranychus urticae (two-spotted spider mite) infected cowpea plant assessed as mortality at 1 ppm sprayed 24 hr post-infection measured after 3 days; assay type: functional
[2] = tested on: Tetranychus urticae; experiment: Acaricidal activity against Tetranychus urticae (two-spotted spider mite) infected cowpea plant assessed as mortality at 10 ppm sprayed 24 hr post-infection measured after 3 days; assay type: functional

CC1=C[C@H]2C(=O)O[C@H]3C[C@@H](C/C=C(\C)C[C@@H](C)/C=C/C=C(\C=O)[C@]2(O)[C@H](O)[C@@H]1O)O[C@@]1(CC[C@H](C)[C@@H](C)O1)C3
mortality at 1 ppm [1]: 7%
mortality at 10 ppm [2]: 17%

CC[C@H]1O[C@]2(CC[C@@H]1C)C[C@@H]1C[C@@H](C/C=C(\C)C[C@@H](C)/C=C/C=C(\C=O)[C@]3(O)[C@H](O)[C@H](O)C(C)=C[C@H]3C(=O)O1)O2
mortality at 1 ppm [1]: 11%
mortality at 10 ppm [2]: 53%

CCO[C@H]1O[C@@H]2[C@H](O)C(C)=C[C@H]3C(=O)O[C@H]4C[C@@H](C/C=C(\C)C[C@@H](C)/C=C/C=C\1[C@]23O)O[C@@]1(CC[C@H](C)[C@@H](CC)O1)C4 [27-ALPHAETHOXY MILBEMYCIN A4]
mortality at 1 ppm [1]: 25%
mortality at 10 ppm [2]: 81%

CC[C@H]1O[C@]2(CC[C@@H]1C)C[C@@H]1C[C@@H](C/C=C(\C)C[C@@H](C)/C=C/C=C3\[C@@H](OC(C)C)O[C@@H]4[C@H](O)C(C)=C[C@@H](C(=O)O1)[C@]34O)O2 [27-ALPHAISOPROPOXY MILBEMYCIN A4]
mortality at 1 ppm [1]: 14%
mortality at 10 ppm [2]: 76%

CO[C@H]1O[C@@H]2[C@H](O)C(C)=C[C@H]3C(=O)O[C@H]4C[C@@H](C/C=C(\C)C[C@@H](C)/C=C/C=C\1[C@]23O)O[C@@]1(CC[C@H](C)[C@@H](C)O1)C4 [27-ALPHAMETHOXY MILBEMYCIN A3]
mortality at 1 ppm [1]: 8%
mortality at 10 ppm [2]: 72%

CC[C@H]1O[C@]2(CC[C@@H]1C)C[C@@H]1C[C@@H](C/C=C(\C)C[C@@H](C)/C=C/C=C3\[C@@H](OC)O[C@@H]4[C@H](O)C(C)=C[C@@H](C(=O)O1)[C@]34O)O2 [27-ALPHAMETHOXY MILBEMYCIN A4]
mortality at 1 ppm [1]: 17%
mortality at 10 ppm [2]: 92%

CCO[C@@H]1O[C@@H]2[C@H](O)C(C)=C[C@H]3C(=O)O[C@H]4C[C@@H](C/C=C(\C)C[C@@H](C)/C=C/C=C\1[C@]23O)O[C@@]1(CC[C@H](C)[C@@H](CC)O1)C4 [27-BETAETHOXY MILBEMYCIN A4]
mortality at 1 ppm [1]: 0%
mortality at 10 ppm [2]: 77%

CC[C@H]1O[C@]2(CC[C@@H]1C)C[C@@H]1C[C@@H](C/C=C(\C)C[C@@H](C)/C=C/C=C3\[C@H](OC(C)C)O[C@@H]4[C@H](O)C(C)=C[C@@H](C(=O)O1)[C@]34O)O2 [27-BETAISOPROPOXY MILBEMYCIN A4]
mortality at 1 ppm [1]: 22%
mortality at 10 ppm [2]: 72%

CO[C@@H]1O[C@@H]2[C@H](O)C(C)=C[C@H]3C(=O)O[C@H]4C[C@@H](C/C=C(\C)C[C@@H](C)/C=C/C=C\1[C@]23O)O[C@@]1(CC[C@H](C)[C@@H](C)O1)C4 [27-BETAMETHOXY MILBEMYCIN A3]
mortality at 1 ppm [1]: 3%
mortality at 10 ppm [2]: 65%

CC[C@H]1O[C@]2(CC[C@@H]1C)C[C@@H]1C[C@@H](C/C=C(\C)C[C@@H](C)/C=C/C=C3\[C@H](OC)O[C@@H]4[C@H](O)C(C)=C[C@@H](C(=O)O1)[C@]34O)O2 [27-BETAMETHOXY MILBEMYCIN A4]
mortality at 1 ppm [1]: 19%
mortality at 10 ppm [2]: 87%

CC1=C[C@H]2C(=O)O[C@H]3C[C@@H](C/C=C(\C)C[C@@H](C)/C=C/C=C4\C(O)O[C@H]([C@@H]1O)[C@@]42O)O[C@@]1(CC[C@H](C)[C@@H](C)O1)C3 (some centres not stated) [27-HYDROXY MILBEMYCIN A3]
mortality at 1 ppm [1]: 7%
mortality at 10 ppm [2]: 17%

CC[C@H]1O[C@]2(CC[C@@H]1C)C[C@@H]1C[C@@H](C/C=C(\C)C[C@@H](C)/C=C/C=C3\C(O)O[C@@H]4[C@H](O)C(C)=C[C@@H](C(=O)O1)[C@]34O)O2 (some centres not stated) [27-HYDROXY MILBEMYCIN A4]
mortality at 1 ppm [1]: 11%
mortality at 10 ppm [2]: 53%

CC1=C[C@H]2C(=O)O[C@H]3C[C@@H](C/C=C(\C)C[C@@H](C)/C=C/C=C4\C(=O)O[C@H]([C@@H]1O)[C@@]42O)O[C@@]1(CC[C@H](C)[C@@H](C)O1)C3 [27-OXOMILBEMYCIN A3]
mortality at 1 ppm [1]: 3%
mortality at 10 ppm [2]: 3%

CC[C@H]1O[C@]2(CC[C@@H]1C)C[C@@H]1C[C@@H](C/C=C(\C)C[C@@H](C)/C=C/C=C3\C(=O)O[C@@H]4[C@H](O)C(C)=C[C@@H](C(=O)O1)[C@]34O)O2 [27-OXOMILBEMYCIN A4]
mortality at 1 ppm [1]: 4%
mortality at 10 ppm [2]: 11%

CC1=C[C@H]2C(=O)O[C@H]3C[C@@H](C/C=C(\C)C[C@@H](C)/C=C/C=C4\CO[C@H]([C@@H]1O)[C@@]42O)O[C@@]1(CC[C@H](C)[C@@H](C)O1)C3 [MILBEMYCIN A3]
mortality at 1 ppm [1]: 3%
mortality at 10 ppm [2]: 69%

CC[C@H]1O[C@]2(CC[C@@H]1C)C[C@@H]1C[C@@H](C/C=C(\C)C[C@@H](C)/C=C/C=C3\CO[C@@H]4[C@H](O)C(C)=C[C@@H](C(=O)O1)[C@]34O)O2 [MILBEMYCIN A4]
mortality at 1 ppm [1]: 32%
mortality at 10 ppm [2]: 100%
